Series [1] in a line: Dynamic H MRI of rat brain after intravenous injection of contrast agent. Format: in vivo, Sprague-Dawley rats. The note with it: whole brain ROI, 1.5 mL D2O into tail vein (about 0.6% of body weight), 4.7 T. The procedure:
Please refer to FIG. 2A and FIG. 2B, which are views showing consecutive MRI images and a curve of signal change. As shown in the figures, 6 normal adult Sprague-Dawley rats (˜200-310 g) are used. Each rat is anesthetized with 1.5% isoflurane/air via a nose cone with respiratory monitoring. Tail vein catheterization is performed with a 0.8-m long polyethylene tube connected to a 23-gaude needle, where a dead volume in a catheter is about 0.2 ml. On operating, 1.5 mL of D2O (99.8%, Cambridge Isotope, Woburn, Mass.) is manually injected into tail vein. After injecting, the catheter is flushed with 0.5 mL 0.9% NaCl solution. For comparison, an additional 0.2 mL Gd-DTPA (Magnevist) is manually injected into tail vein while D2O scanning is completed after 10 min. After injection, the catheter is flushed with 0.5 mL 0.9% NaCl solution. In vivo brain imaging is performed in prone position. All images are acquired on a 4.7 animal MRI scanner (Bruker Biospec 47/40). The parameters for the dynamic images are as follow: TR/TE/θ=1000 ms/30 ms/90 degree, FOV=2.9 cm, matrix size=128×128, and slice thickness=1 mm. Averaged signals from whole brain are portrayed as a signal-intensity curve. For comparison, the signal-intensity curve is transferred into a percentage change curve according to the following formula: Therein, S(t) is a signal at time t and S0 is a signal before using the contrast agent. […]

Series [2] is described as follows: T1 and T2 relaxation rates of H in D2O concentration phantom. Type of series: physicochemical. The note with it: FIG. 1A. The procedure:
The R1 and R2 in the vertical axis are the relaxation rates of T1 and T2 relaxation, respectively.
In an experimental phantom with D2O concentration as c, respective concentrations of H2O, HDO, and D2O are (1-c)^2, 2c(1-c), and c^2, where a part of c of H is replaced by D. Population ratio of H coupled H and D coupled H is calculated as (1-c):c. The observed T1 and T2 relaxation rates are the population weighted sums of all H. Since the D coupled H has slower relaxation rates than H coupled H, we observe linear relations of R1 and R2 as changing the D2O concentration c in FIG. 1A and FIG. 1B.

For series [3] the following is noted: amount of injected D2O less than 20% of body weight; cited from earlier work.
The conditions of series [4]: patients having kidney diseases; cited from earlier work.

Turning to `[2H]O[2H]` [D2O, deuterium oxide], in series [1], the signal change worked out at 10%. In series [2], the “T1 relaxation rate (R1) of H versus D2O concentration” value was “linearly decreased”. The toxicity to animals result in series [3] is reported as “not toxic”.
`O=C([O-])CN(CCN(CC(=O)[O-])CC(=O)O)CCN(CC(=O)[O-])CC(=O)O.[Gd+3]` [Gd-DTPA]: the “nephrogenic systemic fibrosis (NSF)” value in series [4] is on record as “possible to cause nephrogenic systemic fibrosis (NSF)”.

Values taken from US20170258943A1, “Using Heavy Water as a Contrast Agent for Hydrogen Magnetic Resonance Imaging” (National Tsing Hua University, priority 2014, published 2017).
